Results taken from PMC7970697, “Inhibition and Induction by Poziotinib of Different Rat Cytochrome P450 Enzymes In Vivo and in an In Vitro Cocktail Method” (Frontiers in Pharmacology, 2021).
Each block holds one molecule with its values, some of them ahead of it.

Legend:
[1] = test system: cytochrome P450 (CYP) enzymes; design: method as in Dungo et al., 2013; conditions: ref Dungo et al., 2013; cited from earlier work
[2] = test system: cyp2b1; design: method as in Ma et al., 2015; conditions: in rats; ref Ma et al., 2015; cited from earlier work
[3] = test system: CYP2C9; conditions: 2019, cited from earlier work
[4] = test system: CYP2D6; conditions: cited from earlier work
[5] = in vivo; conditions: for Vd/F: Vz/F
Description: Samples were analyzed by a UPLC-MS/MS system equipped with a triple quadrupole mass spectrometer (Waters Corp., Milford, MA, United States) and Acquity UPLC BEH C18 column (1.7 μm, 2.1 × 50 mm) at 40°C. The mobile phase consisted of acetonitrile (A) and 0.1% formic acid (B) with a linear gradient elution at 0.4 ml/min for 3 min.
Twelve male Sprague-Dawley rats (230 ± 20 g) were randomly divided into treated and control groups, with 6 in each group. […] The supernatant was mixed with 200 μL of acetonitrile and 20 μL of 0.5 μg/ml diazepam (IS), vortexed for 30 s, centrifuged at 13,000 rpm for 5 min, and the supernatant was injected into the UPLC-MS/MS system for analysis.
Pharmacokinetic parameters were calculated using DAS software (Version 3.2.8). SPSS software (version 16.0; SPSS Inc., Chicago, IL, United States) was used to analyze the significance of differences between the main pharmacokinetic parameters. p < 0.05 was considered statistically significant. GraphPad (version 8.0; GraphPad Software Inc., San Diego, CA, United States) was used to calculate IC50 and plot the plasma concentration-time curves and inhibition plots (type of inhibition, time- and concentration-dependence).

[6] = male, Sprague-Dawley, rat, in vivo, po
[7] = male, Sprague-Dawley, rat, plasma, po, Control group: oral probe cocktail only (10 mg/kg; tolbutamide 1 mg/kg), rats, n = 6
[8] = male, Sprague-Dawley, rat, plasma, po, Treated group: oral probe cocktail (10 mg/kg; tolbutamide 1 mg/kg) after 7 days oral poziotinib 5 mg/kg, rats, n = 6
[9] = rats, poziotinib 5 mg/kg 7 days vs probes only
[10] = rats, poziotinib 5 mg/kg 7 days vs probes only (Discussion)

Structure (SMILES): CN(C)C/C=C/C(=O)Nc1cc2c(Nc3ccc(F)c(Cl)c3)ncnc2cc1O[C@H]1CCOC1 [Afatinib]
inhibition or induction of CYP enzymes [1]: no inhibition or induction

Structure (SMILES): C#Cc1cccc(Nc2ncnc3cc(OCCOC)c(OCCOC)cc23)c1 [Erlotinib]
effect on cyp2b1 activity [2]: may inhibit
effect on metabolism of warfarin, a CYP2C9 substrate ([3]; in human, ref Hiraide et al.): inhibit warfarin metabolism

Structure (SMILES): COc1cc2ncnc(Nc3ccc(F)c(Cl)c3)c2cc1OCCCN1CCOCC1 [Gefitinib]
effect on CYP2D6 ([4]; ref Prommer, 2004, Hiraide et al., 2019): inhibit
effect on CYP2C9 ([3]; ref Prommer, 2004, Hiraide et al.): inhibit

Tmax [5, 6]: 2.67 ± 0.52 h
t1/2z [5, 6]: 9.10 ± 4.20 h
Tmax ([5]; male, Sprague-Dawley, rat, in vivo, po, Tmax): 2.33 ± 0.52 h
half-life ([5]; male, Sprague-Dawley, rat, in vivo, po, t1/2z): 12.7 ± 4.84 h
CL/F ([5]; male, Sprague-Dawley, rat, plasma, po, CLz/F, Control group: oral probe cocktail only (10 mg/kg; tolbutamide 1 mg/kg), rats, n = 6): 0.02 L/h/kg
Cmax [5, 7]: 3.7 µg/mL
Cmax [5, 8]: 4.92 µg/mL
Vd/F [5, 7]: 0.27 ± 0.04 L/kg
Vd/F [5, 8]: 0.25 ± 0.1 L/kg
AUC (0–∞) increasing by, treated vs control group [5, 9]: 51.60%
CLz/F lower than control group by [5, 9]: 50%
AUC(0–t) of treated group as fold of control group value [5, 10]: 1.43 fold
CLz/F of treated group as fold of control group value [5, 10]: 0.5 fold
Structure (SMILES): CCCCNC(=O)NS(=O)(=O)c1ccc(C)cc1 [Tolbutamide]

Structure (SMILES): COc1cc2ncnc(Nc3ccc(F)c(Cl)c3)c2cc1NC(=O)/C=C/CN1CCCCC1 [dacomitinib]
effect on CY2D6 ([4]; ref Shirley, 2018): potent inhibitor
